In publication PMC7737618, “Structure and elevator mechanism of the mammalian sodium/proton exchanger NHE9” (The EMBO Journal, 2020):
Each block holds one molecule with its values, some of them ahead of it.

Experiments:
NHE9 ΔCTD = biological target: T1, NHE9 ΔCTD (Equus caballus, UniProt F7B113); experiment: GFP-based thermal shift (FSEC-TS); type: binding; conditions: 1% DDM, 1% octyl glucoside, 10 min heating; lipid 1 mg/ml in the screen
T1 construct: gene SLC9A9; residues 8-481 of 644, whole C-terminal regulatory domain removed; GFP-TwinStrep-His8 fusion for thermal shift; S. cerevisiae FGY217; purified homodimer
T1 sequence (F7B113 8-481): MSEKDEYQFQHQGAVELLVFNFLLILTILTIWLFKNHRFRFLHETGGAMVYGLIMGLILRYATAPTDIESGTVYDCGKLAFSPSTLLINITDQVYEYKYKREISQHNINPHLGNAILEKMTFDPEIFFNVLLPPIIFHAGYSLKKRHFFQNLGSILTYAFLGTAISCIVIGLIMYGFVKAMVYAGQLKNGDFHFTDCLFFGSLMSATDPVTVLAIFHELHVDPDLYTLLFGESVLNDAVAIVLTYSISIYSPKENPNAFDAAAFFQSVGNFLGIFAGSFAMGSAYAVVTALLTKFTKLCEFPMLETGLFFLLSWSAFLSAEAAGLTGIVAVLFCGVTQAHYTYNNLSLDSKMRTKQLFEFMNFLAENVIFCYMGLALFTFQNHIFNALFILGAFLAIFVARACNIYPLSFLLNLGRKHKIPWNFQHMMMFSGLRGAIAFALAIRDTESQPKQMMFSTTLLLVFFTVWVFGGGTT

NHE9* [1] = biological target: T2, NHE9* (Equus caballus, UniProt F7B113); experiment: GFP-based thermal shift (FSEC-TS); type: binding; conditions: 1% DDM, 1% octyl glucoside, 10 min heating; lipid 1 mg/ml in the screen
T2 construct: gene SLC9A9; residues 8-575 (8-574 elsewhere) of 644, C-terminal tail truncated; GFP-TwinStrep-His8 fusion kept for thermal shift; S. cerevisiae FGY217; purified homodimer
T2 sequence (F7B113 8-575): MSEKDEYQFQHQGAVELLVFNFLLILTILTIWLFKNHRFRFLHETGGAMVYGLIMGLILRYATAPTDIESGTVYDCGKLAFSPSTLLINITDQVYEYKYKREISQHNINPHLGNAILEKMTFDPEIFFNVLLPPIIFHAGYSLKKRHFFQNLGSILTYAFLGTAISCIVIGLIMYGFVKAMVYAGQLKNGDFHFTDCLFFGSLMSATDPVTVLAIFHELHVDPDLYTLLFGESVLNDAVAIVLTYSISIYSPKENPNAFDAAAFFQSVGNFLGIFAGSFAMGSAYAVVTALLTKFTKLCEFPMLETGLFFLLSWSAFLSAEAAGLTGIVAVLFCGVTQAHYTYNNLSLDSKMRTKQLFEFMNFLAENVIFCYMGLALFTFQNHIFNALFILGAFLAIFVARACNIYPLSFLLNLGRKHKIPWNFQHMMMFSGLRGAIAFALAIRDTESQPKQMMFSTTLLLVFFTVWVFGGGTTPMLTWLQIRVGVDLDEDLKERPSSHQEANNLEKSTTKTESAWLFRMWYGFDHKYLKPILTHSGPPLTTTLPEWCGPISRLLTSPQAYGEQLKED
Source text: GFP-based thermal shift (FSEC-TS) on NHE9* | In the presence of either PIP2 or PIP3, the average melting temperature (ΔT m)

NHE9* [2] = biological target: T3, NHE9* (Equus caballus, UniProt F7B113, K85Q/K105Q/K107Q); experiment: GFP-based thermal shift (FSEC-TS); type: binding; conditions: 1% DDM, 1% octyl glucoside, 10 min heating; lipid 1 mg/ml in the screen; TM2-TM3 loop mutant
T3 construct: gene SLC9A9; residues 8-575 (8-574 elsewhere) of 644, C-terminal tail truncated; GFP-TwinStrep-His8 fusion kept for thermal shift; S. cerevisiae FGY217; purified homodimer
T3 sequence (F7B113 8-575 K85Q/K105Q/K107Q): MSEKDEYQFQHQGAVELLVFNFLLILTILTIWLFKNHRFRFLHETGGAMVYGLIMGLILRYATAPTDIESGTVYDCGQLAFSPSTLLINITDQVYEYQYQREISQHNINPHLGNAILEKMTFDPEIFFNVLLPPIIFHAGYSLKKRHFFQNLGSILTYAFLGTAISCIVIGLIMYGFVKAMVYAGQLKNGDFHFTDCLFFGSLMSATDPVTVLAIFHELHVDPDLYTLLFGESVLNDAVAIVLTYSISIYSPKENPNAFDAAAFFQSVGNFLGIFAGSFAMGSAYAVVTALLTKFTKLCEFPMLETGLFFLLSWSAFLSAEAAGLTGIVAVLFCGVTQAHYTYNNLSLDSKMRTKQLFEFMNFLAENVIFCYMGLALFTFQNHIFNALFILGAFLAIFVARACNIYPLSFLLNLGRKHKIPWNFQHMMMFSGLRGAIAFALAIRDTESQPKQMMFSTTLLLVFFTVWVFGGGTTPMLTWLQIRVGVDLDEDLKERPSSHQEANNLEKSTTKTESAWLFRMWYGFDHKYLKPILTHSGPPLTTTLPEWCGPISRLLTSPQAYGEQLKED

[3] = biological target: horse NHE9* (residues 8-575 out of 644), TEV-cleaved (Equus caballus (horse)); experiment: native MS; 100 mM ammonium acetate pH 7.0, 0.02% (w/v) DDM; NHE9* purified with or without added brain lipids
[4] = biological target: the molecule itself; experiment: cryo-EM structure; purified protein in LMNG/CHS, 20 mM Tris-HCl pH 7.5, 150 mM NaCl; brain lipids added during purification; no symmetry imposed (C1)

ΔTm (NHE9* [1]): 9 °C
Molecule: CCCCCCCC(=O)OC[C@H](COP(=O)(O)O[C@@H]1[C@H](O)[C@H](O)[C@@H](OP(=O)(O)O)[C@H](OP(=O)(O)O)[C@H]1O)OC(=O)CCCCCCC [PIP2, phosphatidylinositol bis‐4,5‐phosphate,1,2‐dioctanoyl]
ΔTm (NHE9 ΔCTD): the ΔCTD construct was also analysed, yet additional stabilization upon PIP2 addition was still observed
ΔTm (NHE9* [2]): a triple lysine‐to‐glutamine loop mutant markedly reduced PIP2‐mediated stabilization

ΔTm (NHE9* [1]): 9 °C
Molecule: CCCCCCCCCCCCCCCC(=O)OC[C@H](COP(=O)(O)O[C@H]1[C@H](O)[C@@H](OP(=O)(O)O)[C@H](OP(=O)(O)O)[C@@H](OP(=O)(O)O)[C@H]1O)OC(=O)CCCCCCCCCCCCCCC [PIP3, phosphatidylinositol tris‐3,4,5‐phosphate,1,2‐dipalmitoyl]

stoichiometry N [3]: 2
Molecule: horse NHE9* (residues 8-575 out of 644), TEV-cleaved (domain or fragment)

B1: horse NHE9 ΔCTD (residues 8-481 out of 644) (domain or fragment, Equus caballus (horse), UniProt F7B113 8-481, looked up)
chain: MSEKDEYQFQHQGAVELLVFNFLLILTILTIWLFKNHRFRFLHETGGAMVYGLIMGLILRYATAPTDIESGTVYDCGKLAFSPSTLLINITDQVYEYKYKREISQHNINPHLGNAILEKMTFDPEIFFNVLLPPIIFHAGYSLKKRHFFQNLGSILTYAFLGTAISCIVIGLIMYGFVKAMVYAGQLKNGDFHFTDCLFFGSLMSATDPVTVLAIFHELHVDPDLYTLLFGESVLNDAVAIVLTYSISIYSPKENPNAFDAAAFFQSVGNFLGIFAGSFAMGSAYAVVTALLTKFTKLCEFPMLETGLFFLLSWSAFLSAEAAGLTGIVAVLFCGVTQAHYTYNNLSLDSKMRTKQLFEFMNFLAENVIFCYMGLALFTFQNHIFNALFILGAFLAIFVARACNIYPLSFLLNLGRKHKIPWNFQHMMMFSGLRGAIAFALAIRDTESQPKQMMFSTTLLLVFFTVWVFGGGTT
notes: horse (Equus caballus) NHE9 (SLC9A9), residues 8-481 out of 644, lacking the entire C-terminal regulatory domain; C-terminal residues left after TEV cleavage are probably as in NHE9* (surmise); also called ΔCTD construct; source: S. cerevisiae FGY217, purified (Strep-Tactin XT, TEV digestion, SEC); not shown: GFP, C-terminal, cleaved; TwinStrep, C-terminal, cleaved; His8, C-terminal, cleaved
binding result [4]: binds
